Source: patent US10265329B2, “Altering steroid metabolism for treatment of steroid-dependent disease” (THE CLEVELAND CLINIC FOUNDATION, priority 2015, dated 2019)
Entries after “also recorded” stand apart in the source; their conditions may differ.

Key:
[1] = tested on: androgen-responsive gene expression (PSA); test: Stimulation of androgen-responsive gene expression by Abi metabolites (qPCR); format: cell-based, human; details: LAPC4 and LNCaP
Procedure: Cells were starved with phenol red-free and serum free-medium for at least 48 h before treatment with the indicated drugs and/or androgens. RNA extraction and cDNA synthesis were performed with the GenElute Mammalian Total RNA miniprep kit (Sigma-Aldrich) and iScript cDNA Synthesis Kit (Bio-Rad, Hercules, Calif.) respectively. Quantitative PCR (qPCR) analysis was conducted in triplicate in an ABI 7500 Real-Time PCR machine (Applied Biosystems) using iTaq Fast SYBR Green Supermix with ROX (Bio-Rad) and primers for TMPRSS2, PSA and RPLPO, as described. Chang et al., Cell 154, 1074-1084 (2013). Accurate quantitation of each mRNA was achieved by normalizing the sample values to RPLPO and to vehicle-treated cells. 50 μg cell lysate was used for immunoblot with rabbit anti-SRD5A1 (Abnova) and mouse anti-β-actin (Sigma-Aldrich) antibodies.

VCaP CRPC xenografts = test: VCaP CRPC xenograft growth under 5α-reduced Abi metabolites; format: in vivo; details: orchiectomized mice; i.p. daily up to 20 days; >30% growth
Procedure: Male NSG mice, 6 to 8 weeks of age were obtained from the Cleveland Clinic Biological Resources Unit facility. All mouse studies were conducted under a protocol approved by the Cleveland Clinic Institutional Animal Care and Use Committee. 10^7 VCaP cells were injected subcutaneously with matrigel. […] Control groups were administered 0.15 mL 5% benzyl alcohol and 95% safflower oil solution via intraperitoneal injection every day. Tumor volume was measured every other day, and time to increase in tumor volume by 30% was determined (2 sequential increases). Mice were sacrificed at treatment day 20. The significance of the difference between treatment groups was assessed by Kaplan-Meier survival analysis using a log-rank test in SigmaStat 3.5.

human 3βHSD1 = biological target: T1, human 3βHSD1 (Homo sapiens, UniProt P14060); test: Recombinant 3βHSD1 enzyme assay, [3H]-pregnenolone metabolism (Lineweaver-Burk); format: biochemical; details: pregnenolone substrate; D4A 5-20 μmol/L
T1 construct: made in house; host or cells: yeast (microsomes)
T1 sequence (P14060 whole entry): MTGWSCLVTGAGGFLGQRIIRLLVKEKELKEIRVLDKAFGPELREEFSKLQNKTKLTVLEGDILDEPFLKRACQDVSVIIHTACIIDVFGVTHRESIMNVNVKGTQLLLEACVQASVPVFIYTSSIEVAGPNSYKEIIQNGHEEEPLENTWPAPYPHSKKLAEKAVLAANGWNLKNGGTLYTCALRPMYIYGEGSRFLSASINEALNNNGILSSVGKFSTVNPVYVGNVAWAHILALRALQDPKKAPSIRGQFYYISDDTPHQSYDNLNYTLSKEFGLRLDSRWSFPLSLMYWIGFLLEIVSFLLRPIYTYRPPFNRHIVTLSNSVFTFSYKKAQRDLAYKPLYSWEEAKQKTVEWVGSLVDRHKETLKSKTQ
Procedure: To test D4A as an inhibitor of 3βHSD, enzyme assays were performed as described previously. Li et al., Clin Cancer Res. 18:3571-3579 (2012). Briefly, incubations were prepared with recombinant human 3βHSD1 or 3βHSD2 (in yeast microsomes, 45 or 2.5 μg protein per incubation, respectively), [^3H]-pregnenolone (100,000 cpm, 1-20 μmol/L), and D4A (5-20 μmol/L) or ethanol vehicle in 0.5 mL of potassium phosphate buffer (pH 7.4). After a pre-incubation at 37° C. for 1 to 3 min, NAD (1 mmol/L) was added, and the incubation was conducted at 37° C. for 20 min. The reaction was stopped by addition of 1 mL ethyl acetate:isooctane (1:1), and the steroids were then extracted into the organic phase and dried. The steroids in the dried extracts were resolved by HPLC and quantitated by in-line scintillation counting

LNCaP cells = test: Cell proliferation assay, DHT-stimulated growth; format: cell-based, human; details: DHT 0.5 nM, 2, 4 and 6 days
Procedure: LNCaP cells (0.1 million/mL) were seeded in 96-well plates and cultured in phenol red free RPMI-1640 mediums plus 10% charcoal stripped FBS with androgens and/or drugs. Medium was changed every other day. After 2, 4 or 6 days, cells were collected and lysed after treatment. Growth was then determined based on DNA content as detected by Hoechst stain and a Wallac Victor2 1420 Multilabel counter (Perkin Elmer). Two-tailed student's t-test was used to determine significance.

C4-2 xenografts = test: C4-2 xenograft progression in orchiectomized mice with DHEA pellet; format: in vivo; details: 0.5 mmol/kg/d i.p.; compared to Abi acetate and enzalutamide
Procedure: Male NSG mice, 6 to 8 weeks of age were obtained from the Cleveland Clinic Biological Resources Unit facility. All mouse studies were conducted under a protocol approved by the Cleveland Clinic Institutional Animal Care and Use Committee. Sample size was determined based on our prior studies of steroidogenesis inhibition in xenograft models of CRPC. Chang et al., Proc Natl Acad Sci USA., 108:13728-13733 (2011). Criteria for progression were determined based on similar criteria that are utilized for clinical progression. Mice were surgically orchiectomized and implanted with a 5 mg 90-day sustained-release DHEA pellet (Innovative Research of America) to mimic CRPC in the context of human adrenal physiology. Two days later, 10^7 VCaP or C4-2 cells were injected subcutaneously with matrigel. […] Control groups were administered 0.1 mL 5% benzyl alcohol and 95% safflower oil solution via intraperitoneal injection every day. Mice in enzalutamide group were fed with enzalutamide in chow every day (10 mg/Kg/day). Tran et al., Science. 324:787-790 (2009). Treatment was not blinded to the investigator. Tumor volume was measured daily, and time to increase in tumor volume by 20% was determined. […] The significance of the difference between treatment groups was assessed by Kaplan-Meier survival analysis using a log-rank test in SigmaStat 3.5.

[2] = Abi conversion to D4A in mouse serum after Abi acetate; format: in vivo; details: mice administered Abi acetate i.p.
Procedure: FIG. 1A-FIG. 1E provides chemical structures and graphs showing the structural consequences of the conversion from Abi to D4A that occurs in both mice, and patients, and requires 3βHSD. A, Schematic of Abi conversion to D4A. * double bond and C3-position for substrates and products of 3βHSD. B, Abi is converted to D4A in vivo. Abi acetate was injected i.p. in 5 mice. Blood was collected 2 h and 4 h after injection. Serum concentrations of Abi and D4A were quantified by mass spectrometry and are represented as the percentage of the sum total of Abi+D4A. C, D4A is detectable in all patients (n=12) with CRPC treated with Abi acetate. D, Representative mass spectrometry tracing of D4A and Abi from the serum of a patient treated with Abi acetate. E, 3βHSD1 is capable of converting Abi to D4A. LAPC4 cells overexpressing 3βHSD1 were treated with 10 μM Abi (or [^3H]-DHEA) for 24 h. Abi, D4A (as a percentage of Abi+D4A), [^3H]-DHEA and [^3H]-DHEA metabolites (labeled metabolites), were separated by HPLC. Results are shown as mean (n=3)±s.d. with biological replicates. The experiment was repeated independently at least 3 times.

SMILES	induction of androgen-responsive gene expression [1]	progression-free survival compared to control xenografts (VCaP CRPC xenografts)	type of inhibition of 3βHSD1 (human 3βHSD1)	effect on DHT-stimulated cell growth (LNCaP cells)	progression-free survival (C4-2 xenografts)	detection in sera of mice [2]
C[C@]12CC[C@@H](O)C[C@@H]1CC[C@@H]1[C@@H]2CC[C@]2(C)C(c3cccnc3)=CC[C@@H]12 [Compound 3α-OH-5α-Abi, 17-(3-pyridyl)-5α-androsta-16-ene-3α-ol]	A lower level of induction	no detectable effect	–	–	–	–
C[C@]12CCC(=O)C[C@@H]1CC[C@@H]1[C@@H]2CC[C@]2(C)C(c3cccnc3)=CC[C@@H]12 [Compound 5α-Abi, 17-(3-pyridyl)-5α-androsta-16-ene-3-one]	results in expression of androgen-responsive genes	significantly shortened progression-free survival	–	–	–	–
C[C@]12CCC(=O)C=C1CC[C@@H]1[C@@H]2CC[C@]2(C)C(c3cccnc3)=CC[C@@H]12 [Compound D4A, 17-(3-Pyridyl)androsta-4,16-dien-3-one]	–	–	mixed competitive-noncompetitive inhibition; also recorded: mixed inhibition kinetics	more potent than Abi	increased progression-free survival	detectable
